pIC50: −log10 of the molar value. Where a SMILES comes first, the peptide text is derived from it. Bridges are numbered along the chain shown (N, C = ends). [ ]: non-standard residue; d: D form. The star is where a group is joined. X1 = CN(C)c1ccc2c(c1)Oc1cc(N(C)C)ccc1C21OC(=O)c2ccc(C(=O)*)cc21; PEG4 = NCCOCCOCCOCCOCCC(=O)O; d(hCys) = N[C@H](CCS)C(=O)O
Experiments:
[1] = Investigation of plasma stability (Tam-labeled peptides, RP-HPLC); type: in vitro ADME; conditions: Tam-modified peptides, 10^−5 M in human blood plasma, 37 °C; one-phase decay
Experimental: Investigation of peptide stability in blood plasma was carried out as described previously [22]. Tam-labeled peptides were dissolved in human blood plasma at a concentration of 10^−5 M and incubated at 37 °C and 250 rpm. Samples taken at the respective time points were added to a solution of 0.1% SDS in ACN/EtOH (1:1). After incubation at −20 °C for 20 min, the supernatant was transferred to a new tube and incubated again at −20 °C for at least 3 h. […] Peaks were integrated, and the peak containing the intact peptide was normalized to the sample taken at t = 0 min (100%). Plasma half-life was determined using one-phase decay in Prism 5 (GraphPad, San Diego, CA, USA).

[2] = tested on: HEK293 cells stably transfected with CMKLR1-eYFP; assay: Quantification of peptide uptake using a High Content Imager; type: cell-based; conditions: 1 µM Tam-labeled peptide, up to 1 h
Experimental: Cells were stimulated with 1 µM of the respective, Tam-labeled peptide for the specified periods, followed by washing with acidic wash (50 mM glycine, 100 mM NaCl, pH 3) in HBSS. Microscopy was carried out in OptiMEM using an ImageXpress Micro Confocal High-Content Imaging System (Molecular Devices, San José, CA, USA), using the appropriate filters for the respective fluorophores (Table 1). The fluorescence intensity per cell was automatically analyzed for each well by a module detecting the nuclei (5–30 µm in diameter and 100 gray levels above background) and the granules by Tam-peptide fluorescence (2–5 µm in diameter, 70 gray levels above background).

[3] = tested on: HEK293 cells transiently transfected with CMKLR1-eYFP; assay: Live cell fluorescence microscopy of peptide uptake; type: cell-based; conditions: 1 µM Tam-labeled peptide, 60 min
Experimental: For fluorescence microscopy, HEK293 cells were seeded into Ibidi 15 µ-slides (140,000 cells/200 µL/well) coated with poly D-lysine and grown overnight. Next, cells were transfected with 900 ng CMKLR1-eYFP. Transfection was achieved using Lipofectamine 2000 according to the manufacturer’s protocol. One day post-transfection, fluorescence microscopy experiments were performed on an AxioVision Observer.Z1 microscope equipped with an ApoTome imaging system (Zeiss, Jena, Germany). […] To observe peptide uptake, cells were stimulated with 1 µM Tam-chemerin-9 in OptiMEM, which was replaced with acidic wash (50 mM glycine, 100 mM NaCl, pH 3) in HBSS after the indicated time, followed by two washing steps with OptiMEM. Microscopy was carried out in OptiMEM.

[4] = tested on: HMEC-1 cells; assay: Resazurin-based cell viability assay, HMEC-1; conditions: Homo sapiens; HMEC-1 cells endogenously expressing CMKLR1, 72 h; read-out: IC50 (toxicity)
Experimental: (§1) HEK293 cells stably transfected with CMKLR1-eYFP, empty HEK293 cells (15,000 cells in 100 µL suspension/well), or HMEC-1 cells (5000 cells in 100 µL suspension/well) in their respective cell culture media were seeded in 96 well plates (coated with poly D-lysine for HEK cells) and incubated at standard conditions overnight. Afterward, cells were incubated with peptides or MTX dissolved in cell culture media, and a medium without peptides was used as a control. […] Ethanol or media was removed and a 50 µL resazurin-based in vitro toxicology assay kit (Sigma-Aldrich, St. Lous, MO, USA) in cell culture media (1:10) was added to each well. After 1 h incubation time, the conversion of the resazurin was detected by measuring the fluorescence intensity at λem = 590 nm. All experiments were performed in duplicates and each experiment was repeated at least three times. Nonlinear regression was calculated using GraphPad Prism 5, curves were normalized to untreated and ethanol-treated cells.

[5] = tested on: HEK293 cells stably transfected with CMKLR1-eYFP; assay: Resazurin-based cell viability assay, HEK293-CMKLR1; conditions: Homo sapiens; HEK293-CMKLR1, 72 h; read-out: IC50 (toxicity)
Experimental: as §1

[6] = tested on: untransfected HEK293 cells; assay: Resazurin-based cell viability assay, untransfected HEK293; conditions: Homo sapiens; HEK293 cells devoid of CMKLR1, 72 h; read-out: IC50 (toxicity)
Experimental: as §1

| half-life [1] | SMILES | intracellular accumulation of Tam-fluorescence over time [2] | intracellular Tam-fluorescence (peptide uptake) [3] | pIC50 [4] | pIC50 [5] | pIC50 [6] |
| --- | --- | --- | --- | --- | --- | --- |
| > 48 h | C[C@@H]1NC(=O)[C@H](Cc2ccccc2)NC(=O)[C@H](CCC(N)=O)NC(=O)[C@H](NC(=O)[C@@H]2CCCN2C(=O)[C@H](Cc2ccccc2)NC(=O)[C@H](Cc2ccc(O)cc2)NC(=O)CCOCCOCCOCCOCCNC(=O)c2ccc3c(c2)C2(OC3=O)c3ccc(N(C)C)cc3Oc3cc(N(C)C)ccc32)CCSSC[C@@H](C(=O)O)NC(=O)[C@H](Cc2ccccc2)NC1=O [Compound 12T, Tam-EG(4)-YFP(xQFAFC)] ({X1-PEG4}-YFP[d(hCys)]QFAFC-OH; disulfide 4-9) | comparable intracellular accumulation over time | pronounced intracellular fluorescence is visible after 60 min of stimulation |  |  |  |
|  | CN(Cc1cnc2nc(N)nc(N)c2n1)c1ccc(C(=O)N[C@@H](CCC(=O)O)C(=O)O)cc1 [MTX, Methotrexate, reference compound] |  |  | 5.00 | 6.33 | 6.43 |

— paper PMC8345219 (Cancers, 2021)
